According to ChEMBL document CHEMBL3992523, “Potent Inhibition of Nitric Oxide-Releasing Bifendate Derivatives against Drug-Resistant K562/A02 Cells in Vitro and in Vivo” (J Med Chem, 2017):
pIC50: −log10 of the molar value. Active and inactive are the calls of the source. The calls are words filed in the database; no cut-off is given here.

Tests used:
[1] = system: K562; test: Anti-proliferative activity against human K562 cells measured after 72 hrs by MTS assay; type: functional, cell-based; details: K562, 72 h
[2] = system: K562/A02; test: Anti-proliferative activity against P-gp overexpressing/drug resistant human K562/A02 cells measured after 72 hrs by MTS assay; type: functional, cell-based; details: K562/A02, 72 h
[3] = Resistant factor, ratio of IC50 for P-gp overexpressing/drug resistant human K562/A02 cells to IC50 for human K562 cells; type: functional
[4] = species: Homo sapiens; test: Inhibition of P-gp in human K562/A02 cells assessed as increase in intracellular rhodamine123 accumulation at 0.33 to 10 uM measured after 1 hr by flow cytometry; type: cell-based
[5] = system: K562; test: Effect on rhodamine123 accumulation in human K562 cells at 0.33 to 10 uM measured after 1 hr by flow cytometry; type: functional, cell-based
[6] = species: Homo sapiens; test: Effect on P-gp ATPase activity in human K562/A02 cell membranes assessed as remaining ATP level by measuring relative light units at 200 uM in presence of MgATP measured after 40 mins by luminescence based P-gp-Glo assay
[7] = Drug metabolism in P-gp overexpressing/drug resistant human K562/A02 cells assessed as nitric oxide production at 100 uM measured at 240 mins by Griess assay; type: ADME, cell-based; details: k562/a02, 4 h
[8] = system: K562/A02; test: Anti-proliferative activity against P-gp overexpressing/drug resistant human K562/A02 cells at 150 uM in presence of hemoglobin measured after 24 hrs by MTS assay; type: functional, cell-based
[9] = Permeability in human Caco2 cells assessed as concentration ratio of basolateral to apical side at 100 uM measured at 5 mins post dose by HPLC analysis; type: ADME, cell-based; details: caco-2, 5 min
[10] = Permeability in human Caco2 cells assessed as concentration ratio of basolateral to apical side at 100 uM measured at 10 mins post dose by HPLC analysis; type: ADME, cell-based; details: caco-2, 10 min
[11] = system: K562/A02; test: Antitumor activity against P-gp overexpressing/drug resistant human K562/A02 cells xenografted in BALB/c nude mouse assessed as reduction in tumor size at 4 mg/kg, iv administered every other day for 21 days measured post last dose; type: functional, organism-based
[12] = system: K562/A02; test: Antitumor activity against P-gp overexpressing/drug resistant human K562/A02 cells xenografted in BALB/c nude mouse assessed as reduction in tumor weight at 4 mg/kg, iv administered every other day for 21 days measured post last dose; type: functional, organism-based
[13] = system: K562/A02; test: Antitumor activity against P-gp overexpressing/drug resistant human K562/A02 cells xenografted in BALB/c nude mouse assessed as tumor growth inhibition at 4 mg/kg, iv administered every other day for 21 days measured post last dose relative to control; type: functional; details: 504 h, read-out: TGI
[14] = Toxicity in BALB/c nude mouse administered via ip for every 3 days of four injections; details: in vivo

Compound | pIC50 [1] | pIC50 [2] | Ratio IC50 [3] | other results
COC(=O)c1cc(OC)c2c(c1-c1c(C(=O)OC3CCN(CC(=O)OCCOc4no[n+]([O-])c4S(=O)(=O)c4ccccc4)CC3)cc(OC)c3c1OCO3)OCO2 | 6.29 | 6.19 | 1.3 | –
COc1ccc(CCN(C)CCCC(C#N)(c2ccc(OC)c(OC)c2)C(C)C)cc1OC (stereo not drawn) | – | – | – | inhibition [4]: Active; Activity [5]: inactive; Activity [6]: 179000 RLU
COC(=O)c1cc(OC)c2c(c1-c1c(C(=O)OCCN3CCN(CC(=O)OC(C)CCOc4no[n+]([O-])c4S(=O)(=O)c4ccccc4)CC3)cc(OC)c3c1OCO3)OCO2 (stereo not drawn) | 6.42 | 6.09 | 2.1 | –
SODIUM ORTHOVANAD | – | – | – | Activity [6]: 242000 RLU
COC(=O)c1cc(OC)c2c(c1-c1c(C(=O)OC3CCN(CC(=O)OC(C)CCOc4no[n+]([O-])c4S(=O)(=O)c4ccccc4)CC3)cc(OC)c3c1OCO3)OCO2 (stereo not drawn) | 6.41 | 6.12 | 1.9 | –
COC(=O)c1cc(OC)c2c(c1-c1c(C(=O)OC3CCN(CC(=O)OC(C)(C)CCOc4no[n+]([O-])c4S(=O)(=O)c4ccccc4)CC3)cc(OC)c3c1OCO3)OCO2 | 6.06 | 6.04 | 1.1 | –
COC(=O)c1cc(OC)c2c(c1-c1c(C(=O)OC)cc(OC)c3c1OCO3)OCO2 [BIFENDATE] | < 3.70 | < 3.70 | – | –
COC(=O)c1cc(OC)c2c(c1-c1c(C(=O)OCCN3CCN(CC(=O)OCCOCCOc4no[n+]([O-])c4S(=O)(=O)c4ccccc4)CC3)cc(OC)c3c1OCO3)OCO2 | 6.42 | 5.64 | 6.1 | –
COC(=O)c1cc(OC)c2c(c1-c1c(C(=O)OCCN3CCN(CC(=O)OCCCCOc4no[n+]([O-])c4S(=O)(=O)c4ccccc4)CC3)cc(OC)c3c1OCO3)OCO2 | 6.16 | 5.80 | 2.3 | –
COC(=O)c1cc(OC)c2c(c1-c1c(C(=O)O)cc(OC)c3c1OCO3)OCO2 | 3.86 | 3.90 | 0.9 | Drug metabolism [7]: Metabolite_Notdetected; Activity [8]: inactive
COC(=O)c1cc(OC)c2c(c1-c1c(C(=O)OCCN3CCN(CC(=O)OC(C)(C)CCOc4no[n+]([O-])c4S(=O)(=O)c4ccccc4)CC3)cc(OC)c3c1OCO3)OCO2 | 6.07 | 5.82 | 1.8 | Drug metabolism [7]: Metabolite_Detected
COC(=O)c1cc(OC)c2c(c1-c1c(C(=O)OCCN3CCN(CC(=O)NCCOc4no[n+]([O-])c4S(=O)(=O)c4ccccc4)CC3)cc(OC)c3c1OCO3)OCO2 | 6.26 | 5.52 | 5.5 | –
COC(=O)c1cc(OC)c2c(c1-c1c(C(=O)OC3CCN(CC(=O)OCCOCCOc4no[n+]([O-])c4S(=O)(=O)c4ccccc4)CC3)cc(OC)c3c1OCO3)OCO2 | 6.19 | 6.05 | 1.4 | Drug metabolism [7]: Metabolite_Detected
COC(=O)c1cc(OC)c2c(c1-c1c(C(=O)OC3CCN(CC(=O)OCCCCOc4nonc4S(=O)(=O)c4ccccc4)CC3)cc(OC)c3c1OCO3)OCO2 | 4.17 | 4.14 | 1.1 | Drug metabolism [7]: Metabolite_Notdetected
COC(=O)c1cc(OC)c2c(c1-c1c(C(=O)OC3CCN(CC(=O)NCCOc4no[n+]([O-])c4S(=O)(=O)c4ccccc4)CC3)cc(OC)c3c1OCO3)OCO2 | 5.89 | 5.50 | 2.5 | Drug metabolism [7]: Metabolite_Detected
O=C(CN1CCC(O)CC1)OCCCCOc1no[n+]([O-])c1S(=O)(=O)c1ccccc1 | 5.65 | 5.39 | 1.8 | Ratio [9]: 0.02; Ratio [10]: 0.03
COC(=O)c1cc(OC)c2c(c1-c1c(C(=O)OCCN3CCN(CC(=O)OCCOc4no[n+]([O-])c4S(=O)(=O)c4ccccc4)CC3)cc(OC)c3c1OCO3)OCO2 | 6.24 | 5.70 | 3.5 | –
COc1cccc2c1C(=O)c1c(O)c3c(c(O)c1C2=O)C[C@@](O)(C(=O)CO)C[C@@H]3O[C@H]1C[C@H](N)[C@H](O)[C@H](C)O1.Cl [DOXORUBICIN HYDROCHLORIDE] | 6.23 | 4.61 | 41.5 | Activity [11]: inactive; Activity [12]: inactive; inhibition in vivo at 4 mg/kg [13]: 18.6%; MTD at 72 h [14]: 4 mg/kg
O=C(CN1CCC(OC(=O)c2ccccc2)CC1)OCCCCOc1nonc1S(=O)(=O)c1ccccc1 | 5.39 | 5.18 | 1.6 | –
COC(=O)c1cc(OC)c2c(c1-c1c(C(=O)OC3CCN(CC(=O)OCCCOc4no[n+]([O-])c4S(=O)(=O)c4ccccc4)CC3)cc(OC)c3c1OCO3)OCO2 | 6.10 | 6.23 | 0.7 | –
COC(=O)c1cc(OC)c2c(c1-c1c(C(=O)OCCN3CCN(CC(=O)OCCCOc4no[n+]([O-])c4S(=O)(=O)c4ccccc4)CC3)cc(OC)c3c1OCO3)OCO2 | 6.12 | 6.03 | 1.2 | Drug metabolism [7]: Metabolite_Detected
